Measured values taken from patent US11919854B2, “P2RX7 modulators in therapy” (Centre national de la recherche scientifique, priority 2018, dated 2024).
Entries after “also recorded” stand apart in the source; their conditions may differ.

What was measured:
[1] = molecular target: T1, mouse P2RX7 (mP2RX7) (Mus musculus, UniProt Q9Z1M0); assay: Channel activity (Fluo4-AM) and large pore opening (Topro3) by flow cytometry, HEK cells expressing mP2RX7, 1 h BzATP; type: cell-based
T1 construct: expressed in transfected cells; host or cells: HEK cells
T1 sequence (Q9Z1M0 1-595): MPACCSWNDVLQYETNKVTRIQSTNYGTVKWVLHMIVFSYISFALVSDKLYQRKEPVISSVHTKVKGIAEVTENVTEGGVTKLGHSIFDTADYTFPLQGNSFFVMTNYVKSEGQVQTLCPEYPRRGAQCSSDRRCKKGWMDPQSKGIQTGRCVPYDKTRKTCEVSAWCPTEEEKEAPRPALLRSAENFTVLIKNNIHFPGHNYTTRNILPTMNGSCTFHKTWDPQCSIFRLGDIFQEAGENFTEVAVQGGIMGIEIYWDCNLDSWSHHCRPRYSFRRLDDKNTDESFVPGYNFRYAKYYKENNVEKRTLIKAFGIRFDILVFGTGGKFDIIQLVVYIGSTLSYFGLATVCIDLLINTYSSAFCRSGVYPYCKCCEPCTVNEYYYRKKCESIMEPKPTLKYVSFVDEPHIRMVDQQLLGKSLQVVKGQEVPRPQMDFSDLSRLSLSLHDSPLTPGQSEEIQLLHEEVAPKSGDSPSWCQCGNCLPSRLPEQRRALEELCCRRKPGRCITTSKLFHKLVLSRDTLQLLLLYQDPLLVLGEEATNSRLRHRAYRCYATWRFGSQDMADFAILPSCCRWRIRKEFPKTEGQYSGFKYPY
Experimental: Calcium channel activity (Fluo4AM probe) and large pore opening (Topro3 probe) were analysed by FACS on mP2RX7 HEK cells. Cells were non stimulated (NS) or treated with BzATP (500 μM) alone or in the presence of HEI2314, HEI2328, HEI2333 or HEI2336 (used at 50 μM).
Calcium channel activity (Fluo4AM probe) and large pore opening (Topro3 probe) were analysed by FACS on mock and mP2RX7 HEK cells. Cells were non stimulated (NS) or treated with BzATP (500 μM) alone or in the presence of HEI2328 used at 50 μM.
2.1. […] Cation channel activity is assayed with the Fluo4 AM (Invitrogen) probe and opening of large pore with Topro3 (Invitrogen). In each experiment 2×10^6 cells were incubated with 50 nM Fluo4-AM for 30 minutes. After washing, cells were treated with 500 μM BzATP (3′-O-(4-benzoyl)benzoyl ATP) for 1 h, or non-treated, in presence of the compounds of the invention at 50 μM. When indicated, the Topro3 probe (8.5 nM) was added during the 1 h stimulation time. Fluorescence was assayed by flow cytometry.

[2] = test system: NCI panel of 60 tumor cell lines; assay: Toxicity on NCI panel of 60 tumor cell lines; type: cell-based; details: HEK cell lines stably transfected with hP2RX7 or mP2RX7 and NCI panel of 60 human tumor cell lines
Description: Toxicity of HEI_2333 and HEI_2336 was already tested on the NCI panel of 60 tumor cell lines (NCI 60-cell panel).

[3] = test system: LLC; assay: LLC tumor growth, HEI3090 combined with anti-PD-1 checkpoint inhibitor; type: in vivo, C57BL6J mice
Experimental: b-g Effect of HEI3090 and anti PD-1 checkpoint inhibitor on LLC tumor growth. 5.105 LLC were injected s.c. into the flank of C57BL6J mice. Mice were treated i.p. with vehicle (PBS, 10% DMSO) or with HEI3090 (1.5 mg/kg in PBS, 10% DMSO) from day 1 to day 18. Each mouse received 200 μg of anti PD-1 i.p. at day 4.7.10.13 and 16. Tumor sizes were measured from day 1 to day 90. Mice were sacrificed when tumor reached 100 mm2. For contralateral re-challenge, cured mice or naive age matched C57BL6J mice were injected s.c. in the opposite flank with 2.105 LLC. At day 150, re-challenged treated mice or C57BL/6J naive mice were sacrificed to sort CD8+ T cells. 2.105 CD8+ T cells were adoptively transferred in other C57BL6J naive mice. Then mice were injected s.c with 2.105 LLC (b). Spaghetti plots of LLC tumor growth of vehicle and anti-PD-1 treated mice or HEI3090 and anti-PD-1 treated mice (c). Each curve represents one mouse. Survival curves of mice treated with vehicle or HEI3090 and isotype control or vehicle or HEI3090 and anti-PD-1 (d). Tumor growth and survival curves after re-challenge of cured mice treated with HEI3090 and anti-PD-1 or age matched C57BL/6J mice (e,f). Tumor growth after i.v. injection of CD8+ T cells from naïve mice or re-challenged treated mice (g).

[4] = molecular target: T2, human P2RX7 (Homo sapiens, UniProt Q99572); assay: Calcium influx and large cation permeation by FACS, 15 min, HEK cells with human P2RX7, increasing doses of HEI3090; type: cell-based; details: increasing doses of HEI3090, 7.8 μM BzATP
T2 construct: expressed in transfected cells; host or cells: HEK cells
T2 sequence (Q99572 1-595): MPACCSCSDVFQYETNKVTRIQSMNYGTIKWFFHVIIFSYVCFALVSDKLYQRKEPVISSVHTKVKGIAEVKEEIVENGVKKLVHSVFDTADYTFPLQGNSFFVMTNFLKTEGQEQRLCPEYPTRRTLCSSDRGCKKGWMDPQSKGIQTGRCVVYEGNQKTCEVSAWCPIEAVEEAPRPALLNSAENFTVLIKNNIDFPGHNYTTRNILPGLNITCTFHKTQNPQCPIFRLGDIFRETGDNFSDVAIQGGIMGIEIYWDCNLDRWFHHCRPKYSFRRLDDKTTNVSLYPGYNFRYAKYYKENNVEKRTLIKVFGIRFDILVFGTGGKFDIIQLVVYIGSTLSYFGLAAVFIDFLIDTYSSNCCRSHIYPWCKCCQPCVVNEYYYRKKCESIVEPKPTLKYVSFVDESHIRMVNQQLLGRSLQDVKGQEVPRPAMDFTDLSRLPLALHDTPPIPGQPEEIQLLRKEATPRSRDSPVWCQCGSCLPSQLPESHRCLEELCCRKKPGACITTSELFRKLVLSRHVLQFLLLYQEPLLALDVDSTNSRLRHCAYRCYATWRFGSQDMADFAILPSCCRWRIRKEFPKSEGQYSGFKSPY
Experimental: Calcium influx (Fluo-AM positive cells) and large cation permeation (Topro3 positive cells) were assayed by FACS 15 min after stimulation of HEK cells transfected with the human P2RX7 that were treated with increasing doses of HEI3090 in the presence of 7.8 μM BzATP.
Complementary analyses were also performed to document the biological activity of HEI3090, the more soluble version of HEI2328, on both HEK cells expressing mouse P2RX7 (mP2RX7) (FIG. 14) or human P2RX7 (hP2RX7) (FIG. 15). BzATP or ATP stimulate channel activity, an event that occurred in the first minutes of P2RX7 stimulation. […] The same positive effect was observed on cells expressing human P2RX7 (FIG. 15).

Structure (SMILES)	Topro3 positive cells ([1]; HEI2328 50 μM combined with BzATP 500 μM, 1 h, mP2RX7 cells) [%]	channel activity (Fluo4-AM) ([1]; combined with BzATP 500 μM, 1 h stimulation)	Topro3 entry (large pore opening) ([1]; compound 50 μM, BzATP 500 μM, 1 h, mP2RX7 HEK cells)	channel activity and large pore opening, compound alone ([1]; used alone (no BzATP) on Mock and mP2RX7 cells, 50 μM)	toxicity in absence of the endogenous P2RX7 ligand (ATP) [2]	cure of tumor bearing mice ([3]; HEI3090 1.5 mg/kg ip day 1-18 combined with anti PD-1 200 μg ip)	memory T cell response ([3]; HEI3090 combined with anti PD-1, re-challenge of cured mice)	increase of Ca influx (Fluo-AM positive cells) [4] [fold]	increase of large cation influx (Topro3 positive cells) [4] [fold]
O=C(NCc1ccc(Cl)cc1Cl)[C@@H]1CCC(=O)N1C(=O)Nc1ccc(Cl)c(Cl)c1 [HEI2328, (S)—N^2-(2,4-Dichlorobenzyl)-N^1-(3,4-dichlorophenyl)-5-oxopyrrolidine-1,2-dicarboxamide]	61	did not impact channel activity	increase Topro3 entry only in presence of BzATP; also recorded: most active	did induce neither channel activity nor large pore opening					
O=C(NCc1ccc(Cl)cc1Cl)[C@@H]1CCC(=O)N1C(=O)Nc1ccc(Cl)nc1 [HEI3090, (S)—N^1-(6-Chloropyridin-3-yl)-N^2-(2,4-dichlorobenzyl)-5-oxopyrrolidine-1,2-dicarboxamide]					non-toxic	cured mice bearing tumors	set up a memory T cell response	3	3
